From patent US8110368B1, “Synuclein gamma as a biomarker of obesity and obesity-related disorders” (The United States of America Department of Agriculture, as …, priority 2008, dated 2012)

Legend:
[1] = test system: γ-synuclein mRNA in 3T3-L1 adipocytes; assay: γ-synuclein mRNA expression in 3T3-L1 adipocytes treated with PPARγ agonist (quantitative real-time PCR); format: cell-based, murine
Description: 3T3-L1 Adipocyte Differentiation & PPARγAgonist Studies. Results herein were generated using the samples described in our recently-published studies (1). Briefly, murine 3T3-L1 fibroblasts (ATCC, Manassas, Va.) grown to between 5-9 passages were induced to differentiate into adipocytes using a protocol similar to Farmer et al. (i.e., (22)). Two-day-confluent cells grown in high-glucose (25 mM) DMEM and 10% FBS (37° C., 5% CO2) in 6-well rat tail collagen-coated plates were exposed to differentiation medium containing 10 μg/ml bovine insulin (˜1.6 μM), 1 μM dexamethasone, and 0.5 mM 3-isobutyl-1-methylxanthine (IBMX) for 2 days. Cells were grown thereafter in maintenance medium (DMEM/10% FBS+2.5 μg/mL insulin). Cell culture media was replaced daily. Proof-of-principle studies tested the ability of the potent non-thiazoladinedione PPARγ agonist GW1929 (23) to regulate γ-synuclein gene expression at various points in the 3T3-L1 adipocyte differentiation and maturation process, as indicated. For these experiments, cells were cultured for the times and doses indicated in media containing vehicle (DMSO; 0.1% by vol.) or GW1929 (0.1% by vol.). RNA was prepared from 3T3-L1 adipocytes using Trizol-based methods for cell culture samples (Ambion, Austin, Tex.). RNA abundance and integrity were checked using a Nanoprop® ND-1000 Spectrophotometer (Nanoprop Technologies, Wilmington, Del.) and an Agilent 2100 bioanalyzer (Agilent, Foster City, Calif.) per manufacturer's instructions.
Gene Expression Analyses. RNA abundance of γ-synuclein and of other genes of interest were measured in 3T3-L1 adipocyte samples using quantitative real-time PCR, as described in detail previously (1). These assays utilized gene-specific TaqMan primers and FAM-MGB labeled probes (Assays-on-Demand®, Applied Biosystems Inc., Foster City, Calif.) and were run in duplicate or triplicate for each sample using an ABI 7900HT instrument. Primers/probe ABI identifiers for human reagents were γ-synuclein (Hs00268306 ml), leptin (Hs00174877 ml), and 11B-hydroxysteroid dehydrogenase (11β-HSD-1; Hs00194153 ml), and for mouse, γ-synuclein (Mm00488345 ml) and others described previously (1). Mouse and human tissue panel samples, and samples derived from non-obese and obese WAT (24) were assayed using a two-step process with preparation of cDNA from total RNA, followed by quantitative real-time PCR. […] Amplification cycle number (Ct) of 18S for each sample was determined using commercial 18S primers and probe (ABI) to correct for template loading differences across all target genes (ΔCt method: ΔCt=sample Ct−18S Ct), and expression values were determined relative to control transcript levels using a mathematical formula as previously described (1). […]

[2] = test system: leptin mRNA in 3T3-L1 adipocytes; assay: leptin mRNA expression in 3T3-L1 adipocytes treated with PPARγ agonist (quantitative real-time PCR); format: cell-based, murine; details: fully-differentiated 3T3-L1 adipocytes, 18 hr treatment, compared with the γ-synuclein mRNA decrease
Description: 3T3-L1 Adipocyte Differentiation & PPARγAgonist Studies. Results herein were generated using the samples described in our recently-published studies (1). Briefly, murine 3T3-L1 fibroblasts (ATCC, Manassas, Va.) grown to between 5-9 passages were induced to differentiate into adipocytes using a protocol similar to Farmer et al. (i.e., (22)). Two-day-confluent cells grown in high-glucose (25 mM) DMEM and 10% FBS (37° C., 5% CO2) in 6-well rat tail collagen-coated plates were exposed to differentiation medium containing 10 μg/ml bovine insulin (˜1.6 μM), 1 μM dexamethasone, and 0.5 mM 3-isobutyl-1-methylxanthine (IBMX) for 2 days. […]
Gene Expression Analyses. RNA abundance of γ-synuclein and of other genes of interest were measured in 3T3-L1 adipocyte samples using quantitative real-time PCR, as described in detail previously (1). […] Mouse and human tissue panel samples, and samples derived from non-obese and obese WAT (24) were assayed using a two-step process with preparation of cDNA from total RNA, followed by quantitative real-time PCR. […] Amplification cycle number (Ct) of 18S for each sample was determined using commercial 18S primers and probe (ABI) to correct for template loading differences across all target genes (ΔCt method: ΔCt=sample Ct−18S Ct), and expression values were determined relative to control transcript levels using a mathematical formula as previously described (1). […]

## Cc1c(C)c2c(c(C)c1O)CCC(C)(COc1ccc(CC3SC(=O)NC3=O)cc1)O2 (centres unmarked) [troglitazone]
[1]; 3T3-L1 adipocytes, data not shown
  effective doses required to decrease γ-synuclein and leptin mRNA, compared to GW1929: at least 5 fold

## CN(CCOc1ccc(C[C@H](Nc2ccccc2C(=O)c2ccccc2)C(=O)O)cc1)c1ccccn1 [GW1929]
[1]; fully-differentiated 3T3-L1 adipocytes, 18 hr treatment, dose-response, vs vehicle (DMSO)
  decrease of γ-synuclein mRNA abundance: ≤ 50%
[1]; mature fat cells, single dose, short-term (18 hr) exposure
  γ-synuclein expression (direction of change): decrease
[1]; pre-adipocytes and immature adipocytes, single dose, short-term (18 hr) exposure
  γ-synuclein mRNA (direction of change): increased
[2]
  leptin mRNA pattern in response to short-term treatment: paralleled qualitatively
